# From PubChem BioAssay (NCI)
#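 1) Cells in 96-well plates. 2) Compound, 48 h, 5 concentrations. 3) Linear interpolation between surrounding doses. 4) Unreached endpoint = highest concentration. GI50 is the concentration that inhibits growth by half. TGI marks complete inhibition of growth.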
# Assays:
# Assay in all cases: growth of human tumour cells (NCI), 48 h
# 786-0 renal = system: 786-0 renal
# A498 renal = system: A498 renal
# ACHN renal = system: ACHN renal
# BT-549 breast = system: BT-549 breast
# CAKI-1 renal = system: CAKI-1 renal
# CCRF-CEM leukemia = system: CCRF-CEM leukemia
# DU-145 prostate = system: DU-145 prostate
# EKVX NSCLC = system: EKVX NSCLC
# HCC-2998 colon = system: HCC-2998 colon
# HCT-116 colon = system: HCT-116 colon
# HCT-15 colon = system: HCT-15 colon
# HL-60(TB) leukemia = system: HL-60(TB) leukemia
# HOP-92 NSCLC = system: HOP-92 NSCLC
# HS 578T breast = system: HS 578T breast
# HT29 colon = system: HT29 colon
# IGROV1 ovarian = system: IGROV1 ovarian
# K-562 leukemia = system: K-562 leukemia
# KM12 colon = system: KM12 colon
# LOX IMVI melanoma = system: LOX IMVI melanoma
# M14 melanoma = system: M14 melanoma
# MALME-3M melanoma = system: MALME-3M melanoma
# MCF7 breast = system: MCF7 breast
# MDA-MB-231 breast = system: MDA-MB-231 breast
# MDA-MB-435 = system: MDA-MB-435
# NCI-H23 lung = system: NCI-H23 lung
# NCI-H522 lung = system: NCI-H522 lung
# NCI/ADR-RES ovarian = system: NCI/ADR-RES ovarian
# OVCAR-3 ovarian = system: OVCAR-3 ovarian
# OVCAR-4 ovarian = system: OVCAR-4 ovarian
# OVCAR-5 ovarian = system: OVCAR-5 ovarian
# PC-3 prostate = system: PC-3 prostate
# RPMI-8226 leukemia = system: RPMI-8226 leukemia
# RXF 393 renal = system: RXF 393 renal
# SF-295 CNS = system: SF-295 CNS
# SF-539 CNS = system: SF-539 CNS
# SK-MEL-2 melanoma = system: SK-MEL-2 melanoma
# SK-MEL-28 melanoma = system: SK-MEL-28 melanoma
# SK-MEL-5 melanoma = system: SK-MEL-5 melanoma
# SNB-19 CNS = system: SNB-19 CNS
# SNB-75 CNS = system: SNB-75 CNS
# SR leukemia = system: SR leukemia
# SW-620 colon = system: SW-620 colon
# T-47D breast = system: T-47D breast
# TK-10 renal = system: TK-10 renal
# UACC-257 melanoma = system: UACC-257 melanoma
# UACC-62 melanoma = system: UACC-62 melanoma
# UO-31 renal = system: UO-31 renal
smiles,measurement,setting,value
COc1ccc(NC(=O)Nc2ccccc2CNc2nc(Nc3ccc(OCCN4CCCC4)cc3)ncc2Cl)cc1,GI50,786-0 renal,882 nM
same,TGI,786-0 renal,1640 nM
same,GI50,A498 renal,963 nM
same,TGI,A498 renal,3270 nM
same,GI50,ACHN renal,862 nM
same,TGI,ACHN renal,1550 nM
same,GI50,BT-549 breast,788 nM
same,TGI,BT-549 breast,1540 nM
same,GI50,CAKI-1 renal,867 nM
same,TGI,CAKI-1 renal,1610 nM
same,GI50,CCRF-CEM leukemia,1680 nM
same,TGI,CCRF-CEM leukemia,> 50000 nM
same,GI50,DU-145 prostate,1240 nM
same,TGI,DU-145 prostate,3420 nM
same,GI50,EKVX NSCLC,2650 nM
same,TGI,EKVX NSCLC,9450 nM
same,GI50,HCC-2998 colon,1010 nM
same,TGI,HCC-2998 colon,2180 nM
same,GI50,HCT-116 colon,902 nM
same,TGI,HCT-116 colon,1750 nM
same,GI50,HCT-15 colon,878 nM
same,TGI,HCT-15 colon,1760 nM
same,GI50,HL-60(TB) leukemia,1150 nM
same,TGI,HL-60(TB) leukemia,2590 nM
same,GI50,HOP-92 NSCLC,877 nM
same,TGI,HOP-92 NSCLC,2370 nM
same,GI50,HS 578T breast,1010 nM
same,TGI,HS 578T breast,2380 nM
same,GI50,HT29 colon,1100 nM
same,TGI,HT29 colon,2600 nM
same,GI50,IGROV1 ovarian,894 nM
same,TGI,IGROV1 ovarian,1660 nM
same,GI50,K-562 leukemia,1630 nM
same,TGI,K-562 leukemia,> 50000 nM
same,GI50,KM12 colon,947 nM
same,TGI,KM12 colon,1770 nM
same,GI50,LOX IMVI melanoma,894 nM
same,TGI,LOX IMVI melanoma,1640 nM
same,GI50,M14 melanoma,833 nM
same,TGI,M14 melanoma,1640 nM
same,GI50,MALME-3M melanoma,845 nM
same,TGI,MALME-3M melanoma,1580 nM
same,GI50,MCF7 breast,926 nM
same,TGI,MCF7 breast,1780 nM
same,GI50,MDA-MB-231 breast,953 nM
same,TGI,MDA-MB-231 breast,1740 nM
same,GI50,MDA-MB-435,874 nM
same,TGI,MDA-MB-435,1610 nM
same,GI50,NCI-H23 lung,2010 nM
same,TGI,NCI-H23 lung,8720 nM
same,GI50,NCI-H522 lung,1040 nM
same,TGI,NCI-H522 lung,2310 nM
same,GI50,NCI/ADR-RES ovarian,1100 nM
same,TGI,NCI/ADR-RES ovarian,2640 nM
same,GI50,OVCAR-3 ovarian,923 nM
same,TGI,OVCAR-3 ovarian,1730 nM
same,GI50,OVCAR-4 ovarian,879 nM
same,TGI,OVCAR-4 ovarian,1690 nM
same,GI50,OVCAR-5 ovarian,1020 nM
same,TGI,OVCAR-5 ovarian,2080 nM
same,GI50,PC-3 prostate,1200 nM
same,TGI,PC-3 prostate,2960 nM
same,GI50,RPMI-8226 leukemia,1730 nM
same,TGI,RPMI-8226 leukemia,> 50000 nM
same,GI50,RXF 393 renal,828 nM
same,TGI,RXF 393 renal,1640 nM
same,GI50,SF-295 CNS,853 nM
same,TGI,SF-295 CNS,1600 nM
same,GI50,SF-539 CNS,825 nM
same,TGI,SF-539 CNS,1540 nM
same,GI50,SK-MEL-2 melanoma,1120 nM
same,TGI,SK-MEL-2 melanoma,2580 nM
same,GI50,SK-MEL-28 melanoma,870 nM
same,TGI,SK-MEL-28 melanoma,1620 nM
same,GI50,SK-MEL-5 melanoma,849 nM
same,TGI,SK-MEL-5 melanoma,1550 nM
same,GI50,SNB-19 CNS,2140 nM
same,TGI,SNB-19 CNS,9200 nM
same,GI50,SNB-75 CNS,755 nM
same,TGI,SNB-75 CNS,1450 nM
same,GI50,SR leukemia,1540 nM
same,TGI,SR leukemia,> 50000 nM
same,GI50,SW-620 colon,1050 nM
same,TGI,SW-620 colon,2500 nM
same,GI50,T-47D breast,1020 nM
same,TGI,T-47D breast,2540 nM
same,GI50,TK-10 renal,990 nM
same,TGI,TK-10 renal,1980 nM
same,GI50,UACC-257 melanoma,926 nM
same,TGI,UACC-257 melanoma,1730 nM
same,GI50,UACC-62 melanoma,869 nM
same,TGI,UACC-62 melanoma,1630 nM
same,GI50,UO-31 renal,763 nM
same,TGI,UO-31 renal,1440 nM
